In patent US20240199624A1, “COMPOUNDS, COMPOSITIONS, AND METHODS” (CHDI Foundation, Inc., priority 2022, published 2024):

What was measured:
human MutSbeta = molecular target: T1, human MutSbeta (Homo sapiens, UniProt P20585+P43246); assay: P33 SPA; format: biochemical; conditions: ATP added to compounds first, then enzyme with DNA; 2 μM ATP, 7 nM enzyme, 60 min 37° C.
T1 construct: Msh2(1-934), Gene ID NP_000242.1; Msh3(1-1137), Gene ID J04810.1
Procedure: P33 SPA: Enzyme human MutSbeta (Msh2(1-934), Gene ID NP_000242.1, Msh3(1-1137), Gene ID J04810.1) and 22 bp biotin-labeled DNA containing a GT-mismatch (purchased from Curia Global, TOP 5′-[…]-3′; BOT 3′-AGTAGCTAGGC - - - CGAAGTCTACC-5′-Biotin) were pre-incubated at equimolar concentration for 15 min at room temperature (“RT”) in assay buffer (25 mM HEPES pH=7.5, 150 mM KCl, 2 mM MgCl2, 2 mM GSH, 0.01% Tween-20). ATP (10 μL, 2× final concentration of γ-[^33P]-ATP (final 0.1 nM; Hartmann Analytic, FF-301) and cold ATP (final 2 μM)) was added to compounds (400 nL spotted as concentration response in 100% DMSO into wells of an OptiPlate) and pre-incubated for 30 min at RT. Then, enzyme with DNA was added (10 μL, 2× final concentration of 7 nM) and incubated for 60 min at 37° C. in a total volume of 20 μL per well. Decay of [^33P] with a half-life of 25.4 days was corrected by increasing the concentration of the labelled nucleotide with the appropriate factor; all steps with radioactive ATP were conducted behind appropriate shielding. Then, 20 μL of a 1:2 mix of ammonium molybdate (20 mg/mL Ammonium molybdate in 2.4 M HCl) and SPA beads (ProteinA SPA beads from Perkin Elmer Cat #RPNQ0019 at 7.5 mg/mL+1% azide) was added per well and incubated at RT for 2 min. Then, 40 μL of 7 M CsCl and 0.1 M citrate was added per well and incubated for 20 h at RT before measuring on the MicroBeta (top read mode, 1 min per well). For full plate processing, all reagents were transferred with a pipettor (Selma, CyBio) apart from the final reagent (CsCl+citrate) which was added with a dispenser (MultiFlo, BioTek). Data analysis during assay development was done with Prism GraphPad.

[1] = P33 SPA counter assay (absence of enzyme); conditions: interference with detection system
Procedure: P33 SPA counter assay: This assay was used in the absence of enzyme to determine whether the test compound interferes with the detection system. Otherwise, the same protocol and assay buffer as in the main SPA assay were applied (25 mM HEPES pH=7.5, 150 mM KCl, 2 mM MgCl2, 2 mM GSH, 0.01% Tween-20) and instead of enzyme addition, assay buffer was added. Hydrolysis of substrate (γ-[^33P]-ATP, 0.1 nM; Hartmann Analytic, FF-301; and cold ATP, 10 μM) to a similar level as under enzymatic conditions was achieved by incubation at 50° C. for 4 days. Decay of [^33P] with a half-life of 25.4 days was corrected by increasing the concentration of the labelled nucleotide with the appropriate factor; all steps with radioactive ATP were conducted behind appropriate shielding. After addition of pre-treated ATP substrate (10 μL) to the compounds and addition of buffer (10 μL, instead of enzyme), 20 μL of a 1:2 mix of ammonium molybdate (20 mg/mL Ammonium molybdate in 2.4M HCl) and SPA beads (ProteinA SPA beads from Perkin Elmer Cat #RPNQ0019 at 7.5 mg/mL+1% azide) was added per well and incubated at RT for 2 min. Then, 40 μL of 7 M CsCl and 0.1 M citrate was added per well and incubated for 1 h at room temperature before measuring on the MicroBeta (top read mode, 1 min per well). For full plate processing, all reagents were transferred with a pipettor (Selma, CyBio) apart from the final reagent (CsCl+citrate) which was added with a dispenser (MultiFlo, BioTek). Data analysis during assay development was done with Prism GraphPad, and IC50 fitting for whole compound plates was done with the in-house software Aplus.

MSH2 (human MutSbeta) = molecular target: T2, MSH2 (human MutSbeta) (Homo sapiens, UniProt P43246); assay: ATP binding and cross-linking assay (MSH2 subunit); conditions: [32P]-ATP UV cross-linking to MSH2 subunit of MutSbeta; read-out: cross-link assay IC50 MSH2
T2 construct: Msh2(1-934), Gene ID NP_000242.1
T2 sequence (P43246 whole entry): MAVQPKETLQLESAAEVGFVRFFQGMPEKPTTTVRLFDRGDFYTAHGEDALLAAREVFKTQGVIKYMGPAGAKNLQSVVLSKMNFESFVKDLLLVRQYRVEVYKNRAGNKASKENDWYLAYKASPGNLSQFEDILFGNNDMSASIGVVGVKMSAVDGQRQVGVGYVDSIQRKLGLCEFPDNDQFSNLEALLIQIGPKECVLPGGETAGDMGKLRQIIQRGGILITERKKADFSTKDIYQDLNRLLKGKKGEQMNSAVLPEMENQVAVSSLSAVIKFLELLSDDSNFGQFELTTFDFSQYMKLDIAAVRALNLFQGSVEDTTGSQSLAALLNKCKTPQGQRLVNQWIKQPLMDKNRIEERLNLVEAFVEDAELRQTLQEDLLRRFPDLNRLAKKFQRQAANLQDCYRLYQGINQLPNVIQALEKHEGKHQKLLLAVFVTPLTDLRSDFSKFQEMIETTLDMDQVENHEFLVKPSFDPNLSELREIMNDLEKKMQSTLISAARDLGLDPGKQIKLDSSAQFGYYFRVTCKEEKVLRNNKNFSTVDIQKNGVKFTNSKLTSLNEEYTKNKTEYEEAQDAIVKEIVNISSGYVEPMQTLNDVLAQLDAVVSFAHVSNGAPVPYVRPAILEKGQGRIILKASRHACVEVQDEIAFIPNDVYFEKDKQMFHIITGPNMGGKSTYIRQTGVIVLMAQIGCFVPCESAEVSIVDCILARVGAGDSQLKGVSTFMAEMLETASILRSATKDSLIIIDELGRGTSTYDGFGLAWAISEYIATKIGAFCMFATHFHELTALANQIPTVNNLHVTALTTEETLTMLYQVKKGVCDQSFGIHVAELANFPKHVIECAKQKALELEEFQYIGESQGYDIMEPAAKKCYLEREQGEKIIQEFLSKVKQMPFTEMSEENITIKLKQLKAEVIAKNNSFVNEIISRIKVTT
T2 sequence (P20585 whole entry partner): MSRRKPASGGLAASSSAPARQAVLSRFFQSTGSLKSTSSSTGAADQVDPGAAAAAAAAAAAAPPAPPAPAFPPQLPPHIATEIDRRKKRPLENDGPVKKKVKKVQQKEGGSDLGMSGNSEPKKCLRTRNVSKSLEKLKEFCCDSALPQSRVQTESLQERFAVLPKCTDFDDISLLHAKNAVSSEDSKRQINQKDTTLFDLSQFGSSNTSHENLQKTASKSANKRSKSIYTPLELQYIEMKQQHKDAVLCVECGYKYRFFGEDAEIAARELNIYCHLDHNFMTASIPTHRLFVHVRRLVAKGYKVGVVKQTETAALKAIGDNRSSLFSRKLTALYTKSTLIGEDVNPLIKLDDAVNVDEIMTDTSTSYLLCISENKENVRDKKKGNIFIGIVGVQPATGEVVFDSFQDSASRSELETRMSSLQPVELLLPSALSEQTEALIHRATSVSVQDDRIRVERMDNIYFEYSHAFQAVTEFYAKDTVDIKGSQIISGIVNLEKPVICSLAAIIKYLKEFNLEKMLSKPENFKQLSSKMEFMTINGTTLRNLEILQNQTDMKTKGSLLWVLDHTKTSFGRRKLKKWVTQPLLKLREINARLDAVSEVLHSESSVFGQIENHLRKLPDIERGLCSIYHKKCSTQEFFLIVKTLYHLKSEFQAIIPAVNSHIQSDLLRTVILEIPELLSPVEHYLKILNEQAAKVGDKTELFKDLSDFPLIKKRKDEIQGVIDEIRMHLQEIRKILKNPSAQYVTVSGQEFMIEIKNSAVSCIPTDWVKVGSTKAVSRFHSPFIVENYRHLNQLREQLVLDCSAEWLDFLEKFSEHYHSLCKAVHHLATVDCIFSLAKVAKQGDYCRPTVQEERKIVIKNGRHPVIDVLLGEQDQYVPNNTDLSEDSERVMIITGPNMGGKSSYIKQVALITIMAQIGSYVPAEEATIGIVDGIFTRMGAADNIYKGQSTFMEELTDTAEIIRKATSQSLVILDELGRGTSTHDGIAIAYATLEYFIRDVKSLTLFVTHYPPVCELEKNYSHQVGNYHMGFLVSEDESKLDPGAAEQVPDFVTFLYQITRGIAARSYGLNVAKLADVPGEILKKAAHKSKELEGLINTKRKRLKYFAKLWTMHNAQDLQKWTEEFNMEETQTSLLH
Procedure: ATP binding and cross-linking assay: Enzyme human MutSbeta (Msh2(1-934), Gene ID NP_000242.1, Msh3(1-1137), Gene ID J04810.1) was adjusted to 0.2 μM and, in experiments in the presence of 22 bp biotin-labeled DNA containing a GT-mismatch (purchased from Curia Global, TOP 5′-[…]-3′; BOT 3′-AGTAGCTAGGC - - - CGAAGTCTACC-5′-Biotin), pre-incubated with DNA at equimolar concentration for indicated time and temperature. All reagents were kept on ice. Enzyme was then incubated on ice for the indicated time with 5 nM γ-[^32P]-ATP (Hartmann Analytic, FP-301) or α-[^32P]-ATP (Perkin Elmer, NEG003H250UCSBF4 or Hartmann Analytic, FP-207) and addition of cold ATP (10 μM) or ADP (0.3 μM). The total volume was 20 μL and the samples were handled in Eppendorf reaction tubes. The assay buffer was 25 mM HEPES pH=7.5, 150 mM KCl, 5 mM MgCl2, 5 mM GSH, 0.01% Tween-20. All steps with radioactive ATP were conducted behind appropriate shielding. The samples were then placed on dry ice until they were frozen solid. […] The screen was analyzed in the imager (GE Healthcare, Fluorescent Image Analyzer, Typhoon FLA 7000, #5622514B), and the image was analyzed with imageJ software.

T1 sequence (P43246 whole entry): as the sequence (P43246 whole entry) above
T1 sequence (P20585 whole entry): as the sequence (P20585 whole entry partner) above

IC50 (human MutSbeta) [µM] | IC50 [1] [µM] | IC50 (MSH2 (human MutSbeta)) [µM] | Compound
28.6 | > 200 | 120 | Cc1ccc(Nc2nc(N3CCN(C)CC3)nc3nccnc23)cc1C [Compound 2, N-(3,4-dimethylphenyl)-2-(4-methylpiperazin-1-yl)pteridin-4-amine]
23.8 | > 200 | 215 | CCN1CCN(c2nc(Nc3ccc(Cl)cc3)c3nccnc3n2)CC1 [Compound 4, N-(4-Chlorophenyl)-2-(4-ethylpiperazin-1-yl)pteridin-4-amine]
